Experimental data from US8569281B2, “Compounds and their administration for treating a neurodegenerative disease as well as a method for identifying a compound capable of inhibiting a kinase, such as LRRK” (Medical Research Council Technology, priority 2010, dated 2013).

Biological target: LRRK2 (Homo sapiens (Human), UniProt Q5S007)
Assay: In Vitro LRRK2 Assay (LabChip 3000, fluorescently-labeled peptide substrate)
Assay type: biochemical
Settings: ATP 130 μM, substrate 1 μM, 2 hours, ambient temperature; LRRK2 variant not given; read-out: Ki (μM), affinity values for LRRK2
Experimental: This assay was used to determine a compound's potency in inhibiting activity of LRRK2 by determining, Kiapp, IC50, or percent inhibition values. In a polypropylene plate, LRRK2, fluorescently-labeled peptide substrate, ATP and test compound were incubated together. Using a LabChip 3000 (Caliper Life Sciences), after the reaction the substrate was separated by capillary electrophoresis into two populations: phosphorylated and unphosphorylated. The relative amounts of each were quantitated by fluorescence intensity. LRRK2 Ki was determined according to the equation: Y=V0*(1−((x+Ki*(1+S/Km)+Et)/(2*Et)−(((x+Ki*(1+S/Km)+Et)^2−(4*Et*x))^0.5)/(2*Et))).
Ki values in Table 4 and elsewhere herein are shown in μM.
Assay conditions and materials used were as follows:
Compound Plate Preparation:
For serial dilutions, 34.6 μl DMSO was added to columns 3-24.
Total and Blank Preparation:
In Complete Reaction Buffer, substrate was diluted to 4 μM. Equal volumes of Complete Reaction Buffer and 4 μM substrate were combined to obtain the blank. Equal volumes of Complete Reaction Buffer and 4 μM substrate were combined and to the combined solution was added 2× final LRRK2 concentration.
To a 50 μl polypropylene plate, 5 μl/well buffer/substrate was added by hand to Blank wells. A Biomek FX was used to start the kinase reaction (“PLK SAR 23 ATP”). The following were added to the appropriate wells: • 2 μl compound+23 μl ATP; • 5 μl/well compound/ATP in Assay Plate; • 5 μl/well kinase/substrate in Assay Plate;
The plate was incubated for 2 hours in the dark. Biomek FX was used to stop the kinase reaction (“PLK Stop”), and 10 μl/well Stop solution was added to the Assay Plate. Results were read on the LabChip 3000.
The LabChip 3000 was run using the job “LRRK2 IC50” with the following job settings: • Pressure: −1.4 psi • Downstream voltage: −500 V • Upstream voltage: −2350 V • Post sample buffer sip time: 75 seconds • Post dye buffer sip time: 75 seconds • Final delay time: 200 seconds Parkinson's Disease Animal Model

LRRK2, sequence (Q5S007 whole entry G2019S): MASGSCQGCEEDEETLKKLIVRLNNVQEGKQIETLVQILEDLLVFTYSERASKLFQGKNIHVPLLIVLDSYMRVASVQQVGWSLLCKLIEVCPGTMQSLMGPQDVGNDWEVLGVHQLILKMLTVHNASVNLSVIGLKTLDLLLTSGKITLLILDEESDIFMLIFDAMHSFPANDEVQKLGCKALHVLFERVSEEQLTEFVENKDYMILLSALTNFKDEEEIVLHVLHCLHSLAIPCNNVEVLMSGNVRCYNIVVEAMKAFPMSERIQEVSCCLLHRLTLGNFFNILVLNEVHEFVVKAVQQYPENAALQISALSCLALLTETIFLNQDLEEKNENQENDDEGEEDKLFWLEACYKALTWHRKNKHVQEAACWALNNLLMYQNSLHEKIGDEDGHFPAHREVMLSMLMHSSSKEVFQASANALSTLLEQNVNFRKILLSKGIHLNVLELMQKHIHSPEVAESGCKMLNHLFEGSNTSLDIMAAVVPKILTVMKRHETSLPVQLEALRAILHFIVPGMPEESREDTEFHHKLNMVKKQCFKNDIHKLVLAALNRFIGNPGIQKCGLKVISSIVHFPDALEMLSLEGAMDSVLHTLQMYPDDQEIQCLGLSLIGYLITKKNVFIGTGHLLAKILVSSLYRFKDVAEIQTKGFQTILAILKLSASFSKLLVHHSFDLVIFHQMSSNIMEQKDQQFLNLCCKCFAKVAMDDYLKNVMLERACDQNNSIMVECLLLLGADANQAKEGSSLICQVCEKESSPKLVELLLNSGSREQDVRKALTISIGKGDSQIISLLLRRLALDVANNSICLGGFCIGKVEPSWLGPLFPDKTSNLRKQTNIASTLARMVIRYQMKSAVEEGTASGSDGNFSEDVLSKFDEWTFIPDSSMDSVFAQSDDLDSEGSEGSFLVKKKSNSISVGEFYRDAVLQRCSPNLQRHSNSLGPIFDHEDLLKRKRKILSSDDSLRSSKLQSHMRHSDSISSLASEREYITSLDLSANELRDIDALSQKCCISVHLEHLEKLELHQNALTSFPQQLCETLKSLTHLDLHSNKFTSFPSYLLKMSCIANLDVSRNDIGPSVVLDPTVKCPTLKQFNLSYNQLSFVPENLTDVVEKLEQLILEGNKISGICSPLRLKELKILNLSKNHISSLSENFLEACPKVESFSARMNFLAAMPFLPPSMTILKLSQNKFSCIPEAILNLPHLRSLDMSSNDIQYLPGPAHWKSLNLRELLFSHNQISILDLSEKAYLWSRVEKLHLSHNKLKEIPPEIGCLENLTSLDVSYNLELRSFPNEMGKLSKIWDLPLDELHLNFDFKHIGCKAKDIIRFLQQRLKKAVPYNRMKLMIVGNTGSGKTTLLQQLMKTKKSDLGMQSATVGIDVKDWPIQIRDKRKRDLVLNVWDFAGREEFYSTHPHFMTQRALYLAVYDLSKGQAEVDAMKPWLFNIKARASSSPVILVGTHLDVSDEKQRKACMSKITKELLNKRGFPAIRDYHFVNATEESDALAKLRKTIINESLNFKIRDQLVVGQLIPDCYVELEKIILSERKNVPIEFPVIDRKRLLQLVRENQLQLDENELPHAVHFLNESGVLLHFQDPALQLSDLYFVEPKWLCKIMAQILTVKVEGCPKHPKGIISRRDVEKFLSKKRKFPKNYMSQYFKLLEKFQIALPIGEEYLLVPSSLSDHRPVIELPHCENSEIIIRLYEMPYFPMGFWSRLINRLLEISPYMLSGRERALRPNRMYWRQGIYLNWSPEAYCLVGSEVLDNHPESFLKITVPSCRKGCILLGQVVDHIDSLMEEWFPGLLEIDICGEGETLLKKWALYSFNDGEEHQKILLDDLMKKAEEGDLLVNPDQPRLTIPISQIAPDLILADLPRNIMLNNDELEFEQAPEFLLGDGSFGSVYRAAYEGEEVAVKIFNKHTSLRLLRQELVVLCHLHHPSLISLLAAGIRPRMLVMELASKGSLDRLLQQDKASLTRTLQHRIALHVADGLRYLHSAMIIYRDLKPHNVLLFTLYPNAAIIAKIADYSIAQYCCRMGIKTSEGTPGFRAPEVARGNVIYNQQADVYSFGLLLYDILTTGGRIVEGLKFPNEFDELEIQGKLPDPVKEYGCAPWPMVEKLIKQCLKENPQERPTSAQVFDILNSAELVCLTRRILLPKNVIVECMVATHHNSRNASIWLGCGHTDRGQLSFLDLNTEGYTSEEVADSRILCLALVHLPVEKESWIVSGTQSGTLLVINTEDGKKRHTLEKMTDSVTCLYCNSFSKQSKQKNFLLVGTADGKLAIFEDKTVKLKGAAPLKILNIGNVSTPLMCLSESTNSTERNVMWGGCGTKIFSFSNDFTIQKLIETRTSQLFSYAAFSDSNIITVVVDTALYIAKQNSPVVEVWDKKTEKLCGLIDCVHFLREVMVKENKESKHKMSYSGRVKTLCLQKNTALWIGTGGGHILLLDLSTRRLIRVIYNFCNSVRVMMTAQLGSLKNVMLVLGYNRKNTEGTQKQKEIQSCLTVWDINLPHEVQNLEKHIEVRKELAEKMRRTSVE

Molecule	Ki
COc1cc(-c2n[nH]c3ccnc(OC4CCOCC4)c23)ccn1 [Example 101, 3-(2-Methoxypyridin-4-yl)-4-(tetrahydro-2H-pyran-4-yloxy)-1H-pyrazolo[4,3-c]pyridine]	0.022 µM
Cn1ncc2cc(-c3n[nH]c4ccnc(OC5CCOCC5)c34)ccc21 [Example 140, 3-(1-Methyl-1H-indazol-5-yl)-4-(tetrahydro-2H-pyran-4-yloxy)-1H-pyrazolo[4,3-c]pyridine]	0.013 µM
FC(F)(F)Cn1cc(-c2n[nH]c3ccnc(OC4CCOCC4)c23)cn1 [Example 96, 4-(tetrahydro-2H-pyran-4-yloxy)-3-(1-(2,2,2-trifluoroethyl)-1H-pyrazol-4-yl)-1H-pyrazolo[4,3-c]pyridine]	0.006 µM
c1cc(-c2n[nH]c3ccnc(OC4CCOCC4)c23)cc(N2CCCC2)n1 [Example 110, 3-(2-(Pyrrolidin-1-yl)pyridin-4-yl)-4-(tetrahydro-2H-pyran-4-yloxy)-1H-pyrazolo[4,3-c]pyridine]	0.003 µM
CN(C)C(=O)c1ccc(-c2[nH]nc3ccnc(OC4CCOCC4)c23)cc1F [Example 135, 2-Fluoro-N,N-dimethyl-4-(4-(tetrahydro-2H-pyran-4-yloxy)-1H-pyrazolo[4,3-c]pyridin-3-yl)benzamide]	0.104 µM
CC(C)n1cc(-c2n[nH]c3ccnc(OC(C)C(F)(F)F)c23)cn1 (stereo not shown) [Example 78, 3-(1-Isopropyl-1H-pyrazol-4-yl)-4-(2,2,2-trifluoro-1-methyl-ethoxy)-1H-pyrazolo[4,3-c]pyridine]	0.013 µM
COc1nccc2[nH]nc(-c3ccnc(N4[C@@H]5CC[C@H]4COC5)c3)c12 [Example 117, 8-(4-(4-Methoxy-1H-pyrazolo[4,3-c]pyridin-3-yl)pyridin-2-yl)-3-oxa-8-azabicyclo[3.2.1]octane]	0.08 µM
COc1nccc2[nH]nc(-c3ccnc(C(F)(F)F)c3)c12 [Example 108, 4-Methoxy-3-(2-(trifluoromethyl)pyridin-4-yl)-1H-pyrazolo[4,3-c]pyridine]	0.075 µM
COc1nccc2[nH]nc(-c3cnn(C4CCOC4)c3)c12 (stereo not shown) [Example 234, 4-methoxy-3-(1-(tetrahydrofuran-3-yl)-1H-pyrazol-4-yl)-1H-pyrazolo[4,3-c]pyridine]	0.023 µM
CC(C)n1cc(-c2n[nH]c3ccnc(OC4CCOCC4)c23)cc1C(=O)NC1COC1 [Example 70, 1-isopropyl-N-(oxetan-3-yl)-4-(4-(tetrahydro-2H-pyran-4-yloxy)-1H-pyrazolo[4,3-c]pyridin-3-yl)-1H-pyrrole-2-carboxamide]	0.003 µM
COc1nccc2[nH]nc(-c3ccnc(N4C[C@@H](C)O[C@@H](C)C4)c3)c12 [Example 238, (2S,6R)-4-(4-(4-methoxy-1H-pyrazolo[4,3-c]pyridin-3-yl)pyridin-2-yl)-2,6-dimethylmorpholine]	0.025 µM

The remaining lines, values ahead:

Ki	Molecule
0.065 µM	c1cc(-c2n[nH]c3ccnc(OC4CCOCC4)c23)nc(N2CCOCC2)n1 [Example 84, 4-(4-(4-(tetrahydro-2H-pyran-4-yloxy)-1H-pyrazolo[4,3-c]pyridin-3-yl)pyrimidin-2-yl)morpholine]
0.003 µM	c1cc2[nH]nc(-c3cnn([C@H]4CCOC4)c3)c2c(OC2CCOCC2)n1 [Example 147, (S)-4-(tetrahydro-2H-pyran-4-yloxy)-3-(1-(tetrahydrofuran-3-yl)-1H-pyrazol-4-yl)-1H-pyrazolo[4,3-c]pyridine]
0.209 µM	COc1nccc2n[nH]c(-c3ccc(C(=O)N4CCOCC4)c(Cl)c3)c12 [Example 109, (2-Chloro-4-(4-methoxy-1H-pyrazolo[4,3-c]pyridin-3-yl)phenyl)(morpholino)methanone]
0.006 µM	c1cc2[nH]nc(-c3cnn(C4CCCC4)c3)c2c(OC2CCOCC2)n1 [Example 39, 3-(1-Cyclopentyl-1H-pyrazol-4-yl)-4-(tetrahydro-2H-pyran-4-yloxy)-1H-pyrazolo[4,3-c]pyridine]
0.01 µM	CC(=O)Nc1cccc(-c2cc(-c3n[nH]c4ccnc(OC5CCOCC5)c34)ccn2)c1 [Example 209, N-(3-(4-(4-(tetrahydro-2H-pyran-4-yloxy)-1H-pyrazolo[4,3-c]pyridin-3-yl)pyridin-2-yl)phenyl)acetamide]
0.495 µM	CN1CCc2c(-c3n[nH]c4ccnc(OC5CCOCC5)c34)cccc21 [Example 157, 3-(1-Methylindolin-4-yl)-4-(tetrahydro-2H-pyran-4-yloxy)-1H-pyrazolo[4,3-c]pyridine]
0.009 µM	CN(C)C(=O)c1ccc(-c2cc(-c3n[nH]c4ccnc(OC5CCOCC5)c34)ccn2)cc1 [Example 212, N,N-dimethyl-4-(4-(4-(tetrahydro-2H-pyran-4-yloxy)-1H-pyrazolo[4,3-c]pyridin-3-yl)pyridin-2-yl)benzamide]
0.016 µM	CC(Oc1nccc2[nH]nc(-c3ccnc(N4CCOCC4)c3)c12)C(F)(F)F (stereo not shown) [Example 177, 4-(4-(4-(1,1,1-trifluoropropan-2-yloxy)-1H-pyrazolo[4,3-c]pyridin-3-yl)pyridin-2-yl)morpholine]
0.199 µM	CNC(=O)c1cccc(-c2[nH]nc3cc(C)nc(OC)c23)c1 [Example 235, 3-(4-methoxy-6-methyl-1H-pyrazolo[4,3-c]pyridin-3-yl)-N-methylbenzamide]
0.13 µM	N#Cc1cc(-c2n[nH]c3ccnc(OC4CCOCC4)c23)ccn1 [Example 174, 4-(4-(tetrahydro-2H-pyran-4-yloxy)-1H-pyrazolo[4,3-c]pyridin-3-yl)picolinonitrile]
0.039 µM	CC(C)n1cc(-c2n[nH]c3ccnc(OC4CCOCC4)c23)cc1C(=O)N1CCOCC1 [Example 65, (1-isopropyl-4-(4-(tetrahydro-2H-pyran-4-yloxy)-1H-pyrazolo[4,3-c]pyridin-3-yl)-1H-pyrrol-2-yl)(morpholino)methanone]
0.858 µM	Cc1n[nH]c2ccnc(OC3CCCC3)c12 [Example 196, 4-(cyclopentyloxy)-3-methyl-1H-pyrazolo[4,3-c]pyridine]
0.018 µM	CC(C)Oc1nccc2[nH]nc(-c3cc(C(=O)N(C)C)n(C(C)C)c3)c12 [Example 54, 4-(4-isopropoxy-1H-pyrazolo[4,3-c]pyridine-3-yl)-1-isopropyl-N,N-dimethyl-1H-pyrrole-2-carboxamide]
0.015 µM	CNC(=O)c1cccc(-c2cc(-c3n[nH]c4ccnc(OC5CCOCC5)c34)ccn2)c1 [Example 211, N-methyl-3-(4-(4-(tetrahydro-2H-pyran-4-yloxy)-1H-pyrazolo[4,3-c]pyridin-3-yl)pyridin-2-yl)benzamide]
0.051 µM	COc1nccc2[nH]nc(-c3ccnc(N4C[C@@H]5C[C@H]4CO5)c3)c12 [Example 118, (1S,4S)-5-(4-(4-Methoxy-1H-pyrazolo[4,3-c]pyridin-3-yl)pyridin-2-yl)-2-oxa-5-azabicyclo[2.2.1]heptanes]
0.008 µM	CC(C)n1cc(-c2n[nH]c3ccnc(OC4CCOCC4)c23)cc1C(=O)N1CCC1 [Example 218, Azetidin-1-yl-{1-isopropyl-4-[4-(tetrahydro-pyran-4-yloxy)-1H-pyrazolo[4,3-c]pyridin-3-yl]-1H-pyrrol-2-yl}-methanone]

Same assay, conditions: read-out: Ki (μM), affinity values for LRRK2

Molecule	Ki
3-(1-(oxetan-3-yl)-1H-benzo[d]imidazol-5-yl)-4-(tetrahydro-2H-pyran-4-yloxy)-1H-pyrazolo[4,3-c]pyridine [Example 125]	0.056 µM
